Test results: paper PMC4733049, “Characterization of Rv0888, a Novel Extracellular Nuclease from Mycobacterium tuberculosis” (Scientific Reports, 2016)

Biological target: T1, Rv0888 (Mycobacterium tuberculosis, UniProt P9WKQ1)
T1 construct: gene spmT
Assay: DNase inhibition, circular plasmid DNA, agarose gel and A260 spectrophotometry
Format: biochemical
Conditions: pH 6.5, 5 mM CaCl2, 5 mM MnCl2, 41 °C, 1 h

T1 sequence (P9WKQ1 32-490 limits assumed): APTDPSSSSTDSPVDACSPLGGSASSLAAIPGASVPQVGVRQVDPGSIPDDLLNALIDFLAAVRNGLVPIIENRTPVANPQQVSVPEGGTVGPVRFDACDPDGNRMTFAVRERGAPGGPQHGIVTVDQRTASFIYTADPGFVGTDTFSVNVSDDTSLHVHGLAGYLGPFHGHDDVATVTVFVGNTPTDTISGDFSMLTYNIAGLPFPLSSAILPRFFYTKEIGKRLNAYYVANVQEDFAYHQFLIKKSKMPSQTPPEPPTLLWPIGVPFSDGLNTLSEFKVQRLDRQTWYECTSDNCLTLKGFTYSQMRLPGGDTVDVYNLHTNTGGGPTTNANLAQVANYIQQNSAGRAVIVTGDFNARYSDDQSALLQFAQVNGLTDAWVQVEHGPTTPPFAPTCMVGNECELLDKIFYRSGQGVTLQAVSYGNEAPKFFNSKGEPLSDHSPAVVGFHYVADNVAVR

Row | Compound | relative DNase activity at 0.5, 1, 2 mM
1 | CCCCC[C@H](O)CC(=O)CCc1ccc(O)c(OC)c1 [6-Gingerol] | inhibited by four Chinese medicine monomers (Oleuropein, 6-Gingerol, Corylifolinin and Acteoside)
2 | C[C@@H]1O[C@@H](O[C@@H]2[C@@H](O)[C@H](OCCc3ccc(O)c(O)c3)O[C@H](CO)[C@H]2OC(=O)/C=C/c2ccc(O)c(O)c2)[C@H](O)[C@H](O)[C@H]1O [Acteoside] | inhibited by four Chinese medicine monomers (Oleuropein, 6-Gingerol, Corylifolinin and Acteoside)
3 | CC(C)=CCc1c(O)ccc(C(=O)/C=C/c2ccc(O)cc2)c1O [Corylifolinin] | inhibited by four Chinese medicine monomers (Oleuropein, 6-Gingerol, Corylifolinin and Acteoside)
4 | C/C=C1/[C@H](O[C@@H]2O[C@H](CO)[C@@H](O)[C@H](O)[C@H]2O)OC=C(C(=O)OC)[C@H]1CC(=O)OCCc1ccc(O)c(O)c1 [Oleuropein] | inhibited by four Chinese medicine monomers (Oleuropein, 6-Gingerol, Corylifolinin and Acteoside)
